Test results taken from article PMC4881598, “Novel Zinc(II) Complexes [Zn(atc-Et)2] and [Zn(atc-Ph)2]: In Vitro and in Vivo Antiproliferative Studies” (International Journal of Molecular Sciences, 2016).
Like-named read-outs stand apart in the source and are kept apart here.

How the values were obtained:
[1] = tested on: HeLa cells (cervix adenocarcinoma); assay: Cytotoxic analysis (IC50) of adherent cell lines, resazurin: HeLa; format: cell-based; conditions: for IC50: HeLa tumor cells, 24 h incubation, resazurin, read-out: IC50 ± SD, HeLa; for SI (selectivity index), HeLa: IC50 for MRC-5 cells / IC50 for HeLa cells
Description: (§1) All adherent cell lines, including healthy lung fibroblast (MRC-5), hepatocellular carcinoma (HepG-2), cervix adenocarcinoma (HeLa), breast adenocarcinoma (MDA-MB-231), prostate carcinoma (DU 145) and suspended chronic myelogenous leukemia (K-562) cells, were cultured in a humidified atmosphere containing 5% CO2 at 37 °C. The cultures were maintained in Dulbecco's Modified Eagle Medium (DMEM) or Roswell Park Memorial Institute (RPMI) 1640 medium (Vitrocell®, Campinas, SP, Brazil) supplemented with 10% fetal bovine serum (FBS), 50 mg/L gentamicin sulfate, and 2 mg/L amphotericin B.
(§2) In these experiments, cells were collected in a solution of trypsin/ethylenediaminetetraacetic acid (EDTA) (Vitrocell®) and centrifuged (252× g for 5 min). The number of cells was counted using a Neubauer chamber (Celeromics, Valencia, Spain) after staining non-viable cells with 0.4% trypan blue solution (Sigma-Aldrich®) via the cell exclusion assay. Then, the cell concentration was adjusted to 7.5 × 10^4 cells/mL in DMEM for tumor cells and MRC-5 cells. Next, a 200 μL suspension was deposited into each well of a 96-well microplate to a cell density of 1.5 × 10^4 cells/well. The cells were incubated at 37 °C in an atmosphere of 5% CO2 for 24 h to allow the cells to attach to the plate. The coordination compounds were solubilized in DMSO to an initial concentration of 10,000 µg/mL. Test solutions of the complexes were prepared to obtain concentrations from 500 to 1.95 μg/mL. The diluted solutions were added to the cells after changing the medium to remove any non-adherent cells, and the cultures were incubated for an additional 24 h. The cytotoxicity of the complexes was determined after incubating the cells in 30 μL of resazurin for approximately 2 h. The measurement was performed using a Synergy H1 microplate reader (BioTek®, Winooski, VT, USA) with excitation and emission filters at wavelengths of 530 and 590 nm, respectively. The assays were performed in three independent experiments.
(§3) The SI of the complexes was calculated as the ratio of the IC50 for healthy MRC-5 cells to the IC50 for tumor cells. […] Substances with SI values >3 are considered promising.

[2] = tested on: HepG2 cells (hepatocellular carcinoma); assay: Cytotoxic analysis (IC50) of adherent cell lines, resazurin: HepG2; format: cell-based; conditions: for IC50: HepG2 tumor cells, 24 h incubation, resazurin, read-out: IC50 ± SD, HepG2; for SI (selectivity index), HepG2: IC50 for MRC-5 cells / IC50 for HepG2 cells
Description: as §1, §2, §3

[3] = tested on: K-562 cells (chronic myelogenous leukemia); assay: Cytotoxic analysis (IC50) of suspended cells, resazurin: K-562; format: cell-based; conditions: for IC50: K-562 suspended tumor cells, 24 h incubation, resazurin, read-out: IC50 ± SD, K-562; for SI (selectivity index), K-562: IC50 for MRC-5 cells / IC50 for K-562 cells
Description: as §1
In these experiments, cells were centrifuged (252× g for 5 min), and the number of cells was counted using a Neubauer chamber after staining non-viable cells with 0.4% trypan blue solution (Sigma-Aldrich®) via the cell exclusion assay. Then, the cell concentration was adjusted to 2 × 10^5 cells/mL in RPMI 1640 medium. Next, 100 μL of the suspension was deposited into each well of a 96-well microplate to a final cell density of […] [35]. The complexes were dissolved in DMSO to an initial concentration of 10,000 μg/mL. Test solutions of the complexes were prepared to obtain concentrations from 500 to 1.95 μg/mL. The diluted solutions were added to the cells, and the cultures were incubated for 24 h. The cytotoxicity of the complexes was determined after incubating the cells in 30 μL of resazurin for approximately 5 h. The measurement was performed using a Synergy H1 microplate reader (BioTek®, Winooski, VT, USA) with excitation and emission filters at wavelengths of 530 and 590 nm, respectively. The assays were performed in three independent experiments.
as §3

[4] = tested on: MDA-MB-231 cells (breast adenocarcinoma); assay: Cytotoxic analysis (IC50) of adherent cell lines, resazurin: MDA-MB-231; format: cell-based; conditions: for IC50: MDA-MB-231 tumor cells, 24 h incubation, resazurin, read-out: IC50 ± SD, MDA-MB-231; for SI (selectivity index), MDA-MB-231: IC50 for MRC-5 cells / IC50 for MDA-MB-231 cells
Description: as §1, §2, §3

[5] = tested on: DU 145 cells (prostate carcinoma); assay: Cytotoxic analysis (IC50) of adherent cell lines, resazurin: DU 145; format: cell-based; conditions: for IC50: DU 145 tumor cells, 24 h incubation, resazurin, read-out: IC50 ± SD, DU 145; for SI (selectivity index), DU 145: IC50 for MRC-5 cells / IC50 for DU 145 cells
Description: as §1, §2, §3

BALB/c mice [6] = assay: Quantification of serum AST and ALT enzymatic activity levels; format: in vivo; conditions: ANOVA and Dunnett's test
Description: To analyze whether there were any biochemical changes in the liver of the animals, we quantified the serum AST and ALT enzymatic activity levels in mice after administration of the complexes via gavage before sacrificing, as described above. A total of 500 µL of blood was collected via the submandibular vein. The blood samples were placed in collection tubes, centrifuged at 1097.6× g for 15 min to separate the serum, and stored at −70 °C. The samples were analyzed on the day of collection.
Enzymatic activity measurements were performed using biochemical diagnostic kits from Labtest S.A. (Labtest S.A., Lagoa Santa, MG, Brazil).
Statistical analysis was performed using GraphPad Prism Version 1.5 software via ANOVA and Dunnett’s test, and p < 0.05 was established as the significance level.

[7] = tested on: MRC-5 cells (healthy lung fibroblast); assay: Cytotoxic analysis (IC50) of adherent cell lines, resazurin: MRC-5; format: cell-based; conditions: 24 h incubation, read-out: IC50 ± SD, MRC-5
Description: as §1, §2

[8] = In vivo oral bioavailability test, plasma metal quantified by ICP-OES / ICP-MS; conditions: BALB/c mice, 300 mg/Kg oral gavage
Description: Female 4–8-week old BALB/c mice weighing 15–20 g were purchased from the central animal facilities of Campinas State University (UNICAMP, Campinas, SP, Brazil). The mice were maintained in polycarbonate cages at 23 ± 2 °C, 56% ± 2% humidity at a 12 h light/dark cycle under specific pathogen-free conditions (in a positive-pressure cabinet), and the animals were provided with food and water ad libitum. […] The animals (n = 2 animals/complex) received a dose of 300 mg/Kg body weight via oral gavage. At 20 min, 1 h, 2 h, and 4 h after drug administration, blood was drawn from two animals via the retro-orbital veins, draining the submandibular vein and the face of the mice to the point at which the origins of the jugular vein join so that drops of blood exude from the point of penetration. The plasma was separated and stored at −70 °C for quantification.
The metal ion (Zn) concentration was quantified via ICP-OES using a Thermo Scientific Model 6300 system (Thermo Scientific®, San Diego, CA, USA). Samples (50 µL) were diluted 1:100 with a solution containing 0.01% (v/v) Triton X-100 and 0.5% (v/v) nitric acid. During the experiment, the recovery validation test was performed, and this test produced a result of 94%–104% recovery.
For digestion, 50 µL of plasma sample and 5950 µL of double-distilled 20% (v/v) nitric acid were used. The samples were digested in a microwave (Berghof speedwave D 72800, Goshen, NY, USA), reaching a temperature of 170 °C. During the experiment, the recovery validation test was performed, and this test produced a result of 95%–105% recovery.

Artemia salina L. [9] = assay: Artemia salina L. toxicity assay; format: in vivo; conditions: ratio of LC50 values to cisplatin
Description: To determine toxicity of the Zn^II complexes to brine shrimp, 25 mg of egg (Natal, RN, Brazil) was incubated in a beaker (2000 mL) containing artificial salt water at a temperature ranging from 20 to 30 °C. The artificial salt water consisted of 23 g NaCl, 11 g MgCl2·6H2O, 4 g Na2SO4, 1.3 g CaCl2·H2O, and 0.7 g KCl in 1000 mL distilled water. The pH was adjusted to 9.0 using 5N NaOH to avoid risk of death to the Artemia larvae (nauplii) due to a low pH during incubation.
After 24 hours, 0.6 g of Saccharomyces cerevisiae was added to the beaker per liter of salt water to feed the nauplii; after the eggs were incubated for 48 h, the nauplii were extracted for the experiments.
A 120 µL suspension of 10-15 nauplii was added to each well of a 96-well microplate, including the control wells. The compounds were solubilized in DMSO at 15,000 µg/mL and serially diluted in a separate 96-well microplate. The tested concentrations ranged from 1500 to 5.85 µg/mL. After incubation for 24 h, the plates were examined under a Lupa binocular microscope (X3.0), and the numbers of live nauplii in each well were counted to determine the LC50 [21]. The assays were performed in three independent experiments.

[10] = Solubility in solvents and vehicle (qualitative); format: physicochemical
BALB/c mice [11] = assay: In vivo acute toxicity assay, single oral dose; conditions: single dose 1000 mg/kg body weight via gavage, 14 days, n = 6
Description: Female 16–20-week old BALB/c mice weighing 24–26 g were used after utilizing these animals for the bioavailability experiments. […] The mice were maintained in polycarbonate cages at 23 ± 2 °C, 56% ± 2% humidity at a 12-h light/dark cycle under specific-pathogen-free conditions (in a positive-pressure cabinet), and the animals were provided with food and water ad libitum [36].
The safety profile of the complexes to BALB/c mice was evaluated via acute toxicity assays according to protocols established by the OECD using the classical method to measure the acute toxicity (LD50) of a single oral dose (administered via gavage) of the complexes [26].
Each complex was suspended in a sunflower oil vehicle, and the vehicle was used as a control (control group). The complexes were administered as a single dose at 1000 mg/kg body weight via gavage (n = 6 animals/complex). […] The animals were monitored for 14 days, and behavioral parameters (Hippocratic screening) were evaluated.
At the end of the experiment, the animals were weighed, and blood was collected via the submandibular vein. Subsequently, the animals were euthanized in CO2 chambers, and their organs (heart, lungs, right and left kidneys, spleen and liver) were surgically removed, weighed and macroscopically analyzed. […]

Artemia salina L. [12] = tested on: Artemia salina L.; set-up: method as in Freitas et al. (2011) [25]; conditions: ref Freitas et al. (2011) [25]; read-out: LC50 against Artemia salina L.; cited from earlier work
[13] = Homo sapiens, MRC5, normal MRC-5 cells

Compound | IC50 [1] [µM] | IC50 [2] [µM] | IC50 [3] [µM] | IC50 [4] [µM] | IC50 [5] [µM] | IC50 ([7]; normal MRC-5 cells) [µM] | SI (selectivity index), HepG2 [2] | SI (selectivity index), MDA-MB-231 [4] | SI (selectivity index), DU 145 [5] | IC50 ([1]; Homo sapiens) [µM] | IC50 ([2]; Homo sapiens) [µM] | IC50 ([3]; Homo sapiens, K562) [µM] | IC50 ([4]; Homo sapiens) [µM] | IC50 ([5]; Homo sapiens) [µM] | IC50 [7, 13] [µM] | SI (selectivity index), HeLa [1] | SI (selectivity index), K-562 [3] | other results
N.N.[Cl][Pt][Cl] [Cisplatin, reference compound] | 85 ± 10.1 | 60.3 ± 15.1 | 75.4 ± 6 | 143 ± 3.3 | 56.5 ± 6.8 | 46.2 ± 4.9 | – | – | – | – | – | – | – | – | – | – | – | serum AST and ALT enzymatic activity levels versus control group (BALB/c mice [6]): no significant difference
CC(=NN=C([S-])Nc1ccccc1)c1ccccn1.CC(=NN=C([S-])Nc1ccccc1)c1ccccn1.[Zn+2] [Complex 2, [Zn(atc-Ph)2]] | – | – | – | – | – | – | 3.6 | 2.2 | 0.3 | – | – | – | – | – | – | – | – | maximum plasma concentration (Cmax) [8]: 1191.95 ng/mL; plasma concentration at 20 min ([8]; 20 min, Zn by ICP-OES, relative to control sample): 727.83 ng/mL; plasma concentration at 1 h ([8]; 1 h, Zn by ICP-OES, relative to control sample): 1023.55 ng/mL; plasma concentration at 2 h ([8]; 2 h, Zn by ICP-OES, relative to control sample): 1191.95 ng/mL; plasma concentration at 4 h ([8]; 4 h, Zn by ICP-OES, relative to control sample): 624.70 ng/mL; fold lower toxicity in Artemia salina L. relative to cisplatin (Artemia salina L. [9]): 5.7 fold; solubility in organic solvents [10]: reasonably soluble only in dimethyl sulfoxide (DMSO); mortality (BALB/c mice [11]): no mortality
CCNC(=S)N/N=C(\C)c1ccccn1 [Hatc-Et] | – | – | – | – | – | – | – | – | – | 746 ± 23.2 | 553 ± 45 | 420.3 ± 3.7 | 904 ± 65.3 | 532 ± 12.6 | 9 | – | – | –
C/C(=N\NC(=S)Nc1ccccc1)c1ccccn1 [Hatc-Ph] | – | – | – | – | – | – | 0.2 | 0.3 | 0.5 | 25 ± 0.2 | 36.3 ± 1.5 | 11.1 ± 0.6 | 24.3 ± 5 | 15.1 ± 2.1 | 7.4 | 0.3 | 0.7 | –
O.O.O.O.O.O.[Cl][Zn][Cl] [ZnCl2·6H2O] | 864 ± 14 | 698 ± 10.9 | 1090 ± 73.8 | 475 ± 64.3 | 383 ± 7.8 | 240 ± 16.8 | 0.3 | 0.5 | 0.6 | – | – | – | – | – | – | 0.3 | 0.2 | –
perchlorate compound of bis(isoniazid) Zn^II hexahydrate | – | – | – | – | – | – | – | – | – | – | – | – | – | – | – | – | – | LC50 (Artemia salina L. [12]): 268 µM
